Patent US12473304B2, “Heterocyclic PAD4 inhibitors” (BRISTOL-MYERS SQUIBB COMPANY, priority 2020, dated 2025)

These compounds were tested against human PAD4 (hPAD4) (Homo sapiens (Human), UniProt Q9UM07) (assay: RFMS Human PAD4 Functional Assay 1). Conditions: RFMS assay 1; 5 nM hPAD4, 250 μM BAEE substrate, 50 μM calcium, 37° C.
Type: biochemical
In short: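 Recombinant hPAD4 (5 nM) was preincubated with compound (top 50 μM, 0.5% DMSO) for 30 min at 37 °C, then reacted with 250 μM BAEE for 90 min at 37 °C in pH 7.5 HEPES buffer with 50 μM calcium and 5 μM TPEN. Product was derivatized with phenyl glyoxal and quantified by RapidFire MS.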

human PAD4 (hPAD4), sequence (Q9UM07 whole entry): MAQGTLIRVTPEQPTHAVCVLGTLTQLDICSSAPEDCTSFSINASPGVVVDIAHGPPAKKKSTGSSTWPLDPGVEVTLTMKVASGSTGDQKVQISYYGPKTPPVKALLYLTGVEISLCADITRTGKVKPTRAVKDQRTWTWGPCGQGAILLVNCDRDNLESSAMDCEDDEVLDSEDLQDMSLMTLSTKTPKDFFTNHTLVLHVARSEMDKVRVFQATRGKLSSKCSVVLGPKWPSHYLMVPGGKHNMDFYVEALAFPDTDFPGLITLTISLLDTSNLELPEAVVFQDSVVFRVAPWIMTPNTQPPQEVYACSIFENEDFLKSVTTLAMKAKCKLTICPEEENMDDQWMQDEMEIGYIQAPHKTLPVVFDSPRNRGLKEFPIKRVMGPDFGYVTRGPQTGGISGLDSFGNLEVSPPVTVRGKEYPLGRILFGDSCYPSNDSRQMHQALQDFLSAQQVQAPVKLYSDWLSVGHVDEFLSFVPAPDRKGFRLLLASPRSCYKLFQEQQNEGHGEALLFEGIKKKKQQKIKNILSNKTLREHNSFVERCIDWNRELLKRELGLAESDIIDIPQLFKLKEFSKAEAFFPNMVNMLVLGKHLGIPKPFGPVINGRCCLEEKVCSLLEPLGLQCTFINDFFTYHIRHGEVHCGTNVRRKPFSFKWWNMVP

SMILES	IC50
Cc1c(-c2cc3ccc(-c4ccc(Cl)c5c(NS(C)(=O)=O)nn(C)c45)cc3n2CC2CC2)nn2cc(C(=O)N3CC4CCC3[C@@H]4N)cc(F)c12 (stereo partly drawn) [Example 58, N-(7-(2-(6-((7R)-7-Amino-2-azabicyclo[2.2.1]heptane-2-carbonyl)-4-fluoro-3-methylpyrazolo[1,5-a]pyridin-2-yl)-1-(cyclopropylmethyl)-1H-indol-6-yl)-4-chloro-1-methyl-1H-indazol-3-yl)methanesulfonamide]	83 nM
Cc1c(-c2cc3ccc(-c4cccc(O)c4F)cc3n2CC2CC2)nn2cc(C(=O)N3CC4CCC3[C@@H]4N)cc(F)c12 (stereo partly drawn) [Example 59, ((7R)-7-Amino-2-azabicyclo[2.2.1]heptan-2-yl)(2-(1-(cyclopropylmethyl)-6-(2-fluoro-3-hydroxyphenyl)-1H-indol-2-yl)-4-fluoro-3-methylpyrazolo[1,5-a]pyridin-6-yl)methanone]	291 nM
Cc1c(-c2cc3ccc(-c4ccc(O)c(F)c4)cc3n2CC2CC2)nn2cc(C(=O)N3CC4CCC3[C@@H]4N)cc(F)c12 (stereo partly drawn) [Example 60, ((7R)-7-Amino-2-azabicyclo[2.2.1]heptan-2-yl)(2-(1-(cyclopropylmethyl)-6-(3-fluoro-4-hydroxyphenyl)-1H-indol-2-yl)-4-fluoro-3-methylpyrazolo[1,5-a]pyridin-6-yl)methanone]	83 nM
Cc1c(-c2cc3ccc(-c4ccn5c(C)nnc5c4)cc3n2CC2CC2)nn2cc(C(=O)N3CC4CCC3[C@@H]4N)cc(F)c12 (stereo partly drawn) [Example 62, ((7R)-7-Amino-2-azabicyclo[2.2.1]heptan-2-yl)(2-(1-(cyclopropylmethyl)-6-(3-methyl-[1,2,4]triazolo[4,3-a]pyridin-7-yl)-1H-indol-2-yl)-4-fluoro-3-methylpyrazolo[1,5-a]pyridin-6-yl)methanone]	28 nM
Cc1c(-c2cc3cccnc3n2CC2CC2)nn2cc(C(=O)N3CC4CCC3[C@@H]4N)ccc12 (stereo partly drawn) [Example 63, ((7R)-7-Amino-2-azabicyclo[2.2.1]heptan-2-yl)(2-(1-(cyclopropylmethyl)-1H-pyrrolo[2,3-b]pyridin-2-yl)-3-methylpyrazolo[1,5-a]pyridin-6-yl)methanone]	227 nM
Cc1ccc2cc(-c3nn4cc(C(=O)N5CC6CCC5[C@@H]6N)ccc4c3C)n(CC3CC3)c2n1 (stereo partly drawn) [Example 66, ((7R)-7-Amino-2-azabicyclo[2.2.1]heptan-2-yl)(2-(1-(cyclopropylmethyl)-6-methyl-1H-pyrrolo[2,3-b]pyridin-2-yl)-3-methylpyrazolo[1,5-a]pyridin-6-yl)methanone]	59 nM
COc1cc(-c2ccc3cc(-c4nn5cc(C(=O)N6CC7CCC6[C@@H]7N)ccc5c4C)n(CC4CC4)c3n2)c(F)cn1 (stereo partly drawn) [Example 72, ((7R)-7-Amino-2-azabicyclo[2.2.1]heptan-2-yl)(2-(1-(cyclopropylmethyl)-6-(5-fluoro-2-methoxypyridin-4-yl)-1H-pyrrolo[2,3-b]pyridin-2-yl)-3-methylpyrazolo[1,5-a]pyridin-6-yl)methanone]	67 nM
Cc1c(-c2cc3ccc(-c4ccc(OC(F)F)c(F)c4)nc3n2CC2CC2)nn2cc(C(=O)N3CC4CCC3[C@@H]4N)ccc12 (stereo partly drawn) [Example 73, ((7R)-7-Amino-2-azabicyclo[2.2.1]heptan-2-yl)(2-(1-(cyclopropylmethyl)-6-(4-(difluoromethoxy)-3-fluorophenyl)-1H-pyrrolo[2,3-b]pyridin-2-yl)-3-methylpyrazolo[1,5-a]pyridin-6-yl)methanone]	605 nM
Cc1c(-c2cc3ccc(-c4cc(F)c(O)c(F)c4)nc3n2CC2CC2)nn2cc(C(=O)N3CC4CCC3[C@@H]4N)ccc12 (stereo partly drawn) [Example 74, ((7R)-7-Amino-2-azabicyclo[2.2.1]heptan-2-yl)(2-(1-(cyclopropylmethyl)-6-(3,5-difluoro-4-hydroxyphenyl)-1H-pyrrolo[2,3-b]pyridin-2-yl)-3-methylpyrazolo[1,5-a]pyridin-6-yl)methanone]	425 nM
Cc1c(-c2cc3ccc(-c4ccc(F)c(O)c4)nc3n2CC2CC2)nn2cc(C(=O)N3CC4CCC3[C@@H]4N)ccc12 (stereo partly drawn) [Example 75, ((7R)-7-Amino-2-azabicyclo[2.2.1]heptan-2-yl)(2-(1-(cyclopropylmethyl)-6-(4-fluoro-3-hydroxyphenyl)-1H-pyrrolo[2,3-b]pyridin-2-yl)-3-methylpyrazolo[1,5-a]pyridin-6-yl)methanone]	166 nM
COC1CCN(c2ccc3cc(-c4nn5cc(C(=O)N6CC7CCC6[C@@H]7N)ccc5c4C)n(CC4CC4)c3n2)CC1 (stereo partly drawn) [Example 76, ((7R)-7-Amino-2-azabicyclo[2.2.1]heptan-2-yl)(2-(1-(cyclopropylmethyl)-6-(4-methoxypiperidin-1-yl)-1H-pyrrolo[2,3-b]pyridin-2-yl)-3-methylpyrazolo[1,5-a]pyridin-6-yl)methanone]	96 nM

Compounds with a lower IC50, results first:

IC50	SMILES
25 nM	Cc1c(-c2cc3ccc(-c4ccc5c(c4)C(=O)NC5)nc3n2CC2CC2)nn2cc(C(=O)N3CC4CCC3[C@@H]4N)ccc12 (stereo partly drawn) [Example 65, 6-(2-(6-((7R)-7-Amino-2-azabicyclo[2.2.1]heptane-2-carbonyl)-3-methylpyrazolo[1,5-a]pyridin-2-yl)-1-(cyclopropylmethyl)-1H-pyrrolo[2,3-b]pyridin-6-yl)isoindolin-1-one]
23 nM	Cc1c(-c2cc3ccc(-c4ccc(O)c(F)c4)nc3n2CC2CC2)nn2cc(C(=O)N3CC4CCC3[C@@H]4N)ccc12 (stereo partly drawn) [Example 67, ((7R)-7-Amino-2-azabicyclo[2.2.1]heptan-2-yl)(2-(1-(cyclopropylmethyl)-6-(3-fluoro-4-hydroxyphenyl)-1H-pyrrolo[2,3-b]pyridin-2-yl)-3-methylpyrazolo[1,5-a]pyridin-6-yl)methanone]
26 nM	Cc1c(-c2cc3ccc(-c4cccc(O)c4F)nc3n2CC2CC2)nn2cc(C(=O)N3CC4CCC3[C@@H]4N)ccc12 (stereo partly drawn) [Example 68, ((7R)-7-Amino-2-azabicyclo[2.2.1]heptan-2-yl)(2-(1-(cyclopropylmethyl)-6-(2-fluoro-3-hydroxyphenyl)-1H-pyrrolo[2,3-b]pyridin-2-yl)-3-methylpyrazolo[1,5-a]pyridin-6-yl)methanone]
19 nM	Cc1c(-c2cc3ccc(-c4ccc(C(N)=O)c(F)c4)nc3n2CC2CC2)nn2cc(C(=O)N3CC4CCC3[C@@H]4N)ccc12 (stereo partly drawn) [Example 69, 4-(2-(6-((7R)-7-Amino-2-azabicyclo[2.2.1]heptane-2-carbonyl)-3-methylpyrazolo[1,5-a]pyridin-2-yl)-1-(cyclopropylmethyl)-1H-pyrrolo[2,3-b]pyridin-6-yl)-2-fluorobenzamide]
15 nM	Cc1c(-c2cc3ccc(-c4ccn5c(C)nnc5c4)nc3n2CC2CC2)nn2cc(C(=O)N3CC4CCC3[C@@H]4N)ccc12 (stereo partly drawn) [Example 70, ((7R)-7-Amino-2-azabicyclo[2.2.1]heptan-2-yl)(2-(1-(cyclopropylmethyl)-6-(3-methyl-[1,2,4]triazolo[4,3-a]pyridin-7-yl)-1H-pyrrolo[2,3-b]pyridin-2-yl)-3-methylpyrazolo[1,5-a]pyridin-6-yl)methanone]
22 nM	Cc1c(-c2cc3ccc(C4CC4)nc3n2CC2CC2)nn2cc(C(=O)N3CC4CCC3[C@@H]4N)ccc12 (stereo partly drawn) [Example 71, ((7R)-7-Amino-2-azabicyclo[2.2.1]heptan-2-yl)(2-(6-cyclopropyl-1-(cyclopropylmethyl)-1H-pyrrolo[2,3-b]pyridin-2-yl)-3-methylpyrazolo[1,5-a]pyridin-6-yl)methanone]
